Tests used:
[1] = molecular target: T1, acyl-CoA:cholesterol acyl transferase (ACAT) (Rattus norvegicus, UniProt Q7TQM4); assay: Inhibitory action against acyl-CoA:cholesterol acyl transferase (ACAT), formation of labeled cholesterol ester, small intestine mucosal microsome fraction; assay type: biochemical, male Sprague-Dawley rat; details: 10^-6 M; read-out: ACAT Inhibitory Rate (%)
T1 construct: small intestine mucosal microsome fraction of a 6-week-old male Sprague-Dawley rat; from tissue; host or cells: rat small intestine mucosa, microsome fraction
T1 sequence (Q7TQM4 1-524): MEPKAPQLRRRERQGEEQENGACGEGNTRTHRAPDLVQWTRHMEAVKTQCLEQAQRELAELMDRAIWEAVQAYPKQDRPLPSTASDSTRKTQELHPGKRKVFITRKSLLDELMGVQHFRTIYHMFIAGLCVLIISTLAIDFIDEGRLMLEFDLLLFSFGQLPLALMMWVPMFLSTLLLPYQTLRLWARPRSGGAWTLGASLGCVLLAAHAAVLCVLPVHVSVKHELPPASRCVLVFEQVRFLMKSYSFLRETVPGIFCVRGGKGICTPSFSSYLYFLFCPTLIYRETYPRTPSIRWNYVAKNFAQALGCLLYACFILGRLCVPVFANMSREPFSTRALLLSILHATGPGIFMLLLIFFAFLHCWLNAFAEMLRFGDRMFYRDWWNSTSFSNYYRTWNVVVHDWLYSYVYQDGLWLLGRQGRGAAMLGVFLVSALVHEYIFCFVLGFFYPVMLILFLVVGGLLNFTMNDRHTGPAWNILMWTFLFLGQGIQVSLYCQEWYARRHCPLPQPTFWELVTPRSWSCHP
Method: An ACAT enzyme preparation was prepared from a small intestine mucosal microsome fraction of a 6-week-old male Sprague-Dawley rat, previously fasted for 20 hours, in accordance with the method described by Heider et al. in the Journal of Lipid Research, Vol. 24, page 1127 (1982).
ACAT activity was determined by measuring the amount of labeled cholesterol ester produced from [1-^14 C]-oleoyl-CoA and endogenous cholesterol, in accordance with the method of Helgerud et al. [Journal of Lipid Research, Vol. 22, page 271 (1981)].

[2] = Hypocholesterolemic activity (cholesterol-lowering activity) in hypercholesterolemic mice on high cholesterol-cholic acid diet; assay type: in vivo, ICR mice; details: vs control groups; for Reduction % HPL: heparin precipitating lipoproteins; for Reduction % cholesterol: serum
Method: Groups of 6 ICR mice (2 subgroups of 3 mice) were made hypercholesterolemic by being fed a high cholesterol-cholic acid diet for 7 days and administered with test compounds orally on the last two days. One-half of the total does was given on day 6 followed by the other half on day 7. After fasting overnight (16 hours after the last dose), the animals were sacrificed and sera were collected together for the each subgroup for measuring the levels of cholesterol and heparin precipitating lipoproteins (HPL). Both cholesterol and HPL levels were measured with autonalyzer by the enzymatic CHOD-PAP method for the former and by the turbidimetric method of Shurr et. al. [in C. E. Dau ed. Atherosclerosis Drug Discovery, Plenum Publishing, New York, pp. 215-229 & 231-249, 1976.] for the latter.

| Compound | inhibition at 1 µM [1] [%] | further results |
| --- | --- | --- |
| Cc1cc2c(-c3ccccc3)c(CC(=O)Nc3c(C(C)C)cccc3C(C)C)n(C)c(=O)c2cc1C [Example 47, N-[2,6-Bis(1-methylethyl)phenyl]-1,2-dihydro-2,6,7-trimethyl-1-oxo-4-phenyl-3-isoquinolineacetamide] | 90.3 | – |
| CC(C)c1cccc(C(C)C)c1NC(=O)Cc1oc(=O)c2ccc(Cl)cc2c1-c1ccccc1 [Example 48, N-[2,6-Bis(1-methylethyl)phenyl]-6-chloro-1-oxo-4-phenyl-1H-2-benzopyran-3-acetamide] | 99.2 | Reduction % HPL ([2]; 3 mg/kg po): 26%; Reduction % cholesterol ([2]; 3 mg/kg po): 27%; Reduction % HPL ([2]; 10 mg/kg po): 39%; Reduction % cholesterol ([2]; 10 mg/kg po): 32% |
| O=C(Cc1oc(=O)c2ccc(Cl)cc2c1-c1ccccc1)Nc1ccc(F)cc1F [Example 49, 6-Chloro-N-(2,4-difluorophenyl)-1-oxo-4-phenyl-1H-2-benzopyran-3-acetamide] | 92.8 | – |
| CC(C)c1cccc(C(C)C)c1NC(=O)Cc1c(-c2ccccc2)c2cc(Cl)ccc2oc1=O [Example 50, N-[2,6-Bis(1-methylethyl)phenyl]-6-chloro-2-oxo-4-phenyl-2H-1-benzopyran-3-acetamide] | 95.7 | – |
| COc1cc(OC)c(NC(=O)Cc2c(-c3ccccc3)c3cc(Cl)ccc3oc2=O)c(OC)c1 [Example 51, 6-Chloro-2-oxo-4-phenyl-N-(2,4,6-trimethoxyphenyl)-2H-1-benzopyran-3-acetamide] | 98.1 | – |
| O=C(Cc1c(-c2ccccc2)c2cc(Cl)ccc2oc1=O)Nc1ccc(F)cc1F [Example 52, 6-Chloro-N-(2,4-difluorophenyl)-2-oxo-4-phenyl-2H-1-benzopyran-3-acetamide] | 90.4 | – |
| Cc1ccc2oc(=O)c(CC(=O)Nc3c(C(C)C)cccc3C(C)C)c(-c3ccccc3)c2c1 [Example 53, N-[2,6-Bis(1-methylethyl)phenyl]-6-methyl-2-oxo-4-phenyl-2H-1-benzopyran-3-acetamide] | 99.7 | – |
| COc1cc(OC)c(NC(=O)Cc2c(-c3ccccc3)c3cc(C)ccc3oc2=O)c(OC)c1 [Example 54, 6-Methyl-2-oxo-4-phenyl-N-(2,4,6-trimethoxyphenyl)-2H-1-benzopyran-3-acetamide] | 98.4 | – |
| Cc1ccc2oc(=O)c(CC(=O)Nc3ccc(F)cc3F)c(-c3ccccc3)c2c1 [Example 55, N-(2,4-Difluorophenyl)-6-methyl-2-oxo-4-phenyl-2H-1-benzopyran-3-acetamide] | 97.9 | – |
| COc1ccccc1-c1c(CC(=O)Nc2c(C(C)C)cccc2C(C)C)oc(=O)c2ccccc12 [Example 56, N-[2,6-Bis(1-methylethyl)phenyl]-4-(2-methoxyphenyl)-1-oxo-1H-2-benzopyran-3-acetamide] | 98.1 | – |
| CC(C)c1cccc(C(C)C)c1NC(=O)Cc1cnc2ccc(Cl)cc2c1-c1ccccc1 [Example 57, N-[2,6-Bis(1-methylethyl)phenyl]-6-chloro-4-phenyl-3-quinolineacetamide] | 99.3 | – |
| Cc1ccc2c(c1)N(c1ccccc1)C(CC(=O)Nc1c(C(C)C)cccc1C(C)C)C(=O)N2C (centres unmarked) [Example 64, N-[2,6-Bis(1-methylethyl)phenyl]-1,2,3,4-tetrahydro-1,6-dimethyl-2-oxo-4-phenyl-3-quinoxalineacetamide] | 99.5 | – |
| COc1ccccc1-c1c(CC(=O)Nc2c(OC)cccc2OC)oc(=O)c2ccccc12 [Example 74, N-(2,6-Dimethoxyphenyl)-4-(2-methoxyphenyl)-1-oxo-1H-2-benzopyran-3-acetamide] | 99.5 | Reduction % HPL ([2]; 3 mg/kg po): 32%; Reduction % cholesterol ([2]; 3 mg/kg po): 29%; Reduction % HPL ([2]; 10 mg/kg po): 37%; Reduction % cholesterol ([2]; 10 mg/kg po): 33% |
| COc1cccc(OC)c1NC(=O)Cc1oc(=O)c2ccc(Cl)cc2c1-c1ccccc1 [Example 76, 6-Chloro-N-(2,6-dimethoxyphenyl)-1-oxo-4-phenyl-1H-2-benzopyran-3-acetamide] | 99.3 | – |
| COc1cccc(OC)c1NC(=O)Cc1c(-c2ccccc2)c2cc(Cl)ccc2oc1=O [Example 79, 6-Chloro-N-(2,6-dimethoxyphenyl)-2-oxo-4-phenyl-2H-1-benzopyran-3-acetamide] | 99.1 | – |
| Cc1ccccc1-c1c(CC(=O)Nc2c(C(C)C)cccc2C(C)C)c(=O)oc2ccc(Cl)cc12 [Example 82, N-[2,6-Bis(1-methylethyl)phenyl]-6-chloro-4-(2-methylphenyl)-2-oxo-2H-1-benzopyran-3-acetamide] | 99.3 | Reduction % HPL ([2]; 3 mg/kg po): 37%; Reduction % cholesterol ([2]; 3 mg/kg po): 31%; Reduction % HPL ([2]; 10 mg/kg po): 50%; Reduction % cholesterol ([2]; 10 mg/kg po): 40% |
| Cc1ccccc1-c1c(CC(=O)Nc2ccc(F)cc2F)c(=O)oc2ccc(Cl)cc12 [Example 83, 6-Chloro-N-(2,4-difluorophenyl)-4-(2-methylphenyl)-2-oxo-2H-1-benzopyran-3-acetamide] | 99.4 | – |
| COc1cccc(OC)c1NC(=O)Cc1c(-c2ccccc2C)c2cc(Cl)ccc2oc1=O [Example 84, 6-Chloro-N-(2,6-dimethoxyphenyl)-4-(2-methylphenyl)-2-oxo-2H-1-benzopyran-3-acetamide] | 99.5 | Reduction % HPL ([2]; 3 mg/kg po): 28%; Reduction % cholesterol ([2]; 3 mg/kg po): 15%; Reduction % HPL ([2]; 10 mg/kg po): 47%; Reduction % cholesterol ([2]; 10 mg/kg po): 33% |
| COc1cc(OC)c(NC(=O)Cc2c(-c3ccccc3C)c3cc(Cl)ccc3oc2=O)c(OC)c1 [Example 85, 6-Chloro-4-(2-methylphenyl)-2-oxo-N-(2,4,6-trimethoxyphenyl)-2H-1-benzopyran-3-acetamide] | 99.5 | – |
| Cc1cc(C)c(NC(=O)Cc2c(-c3ccccc3C)c3cc(Cl)ccc3oc2=O)c(C)c1 [Example 87, 6-Chloro-4-(2-methylphenyl)-2-oxo-N-(2,4,6-trimethylphenyl)-2H-1-benzopyran-3-acetamide] | 99.3 | – |
| CCOc1cccc(OCC)c1NC(=O)Cc1c(-c2ccccc2C)c2cc(Cl)ccc2oc1=O [Example 88, 6-Chloro-N-(2,6-diethoxyphenyl)-4-(2-methylphenyl)-2-oxo-2H-1-benzopyran-3-acetamide] | 99.7 | – |
| CCOc1cc(F)cc(OCC)c1NC(=O)Cc1c(-c2ccccc2C)c2cc(Cl)ccc2oc1=O [Example 89, 6-Chloro-N-(2,6-diethoxy-4-fluorophenyl)-4-(2-methylphenyl)-2-oxo-2H-1-benzopyran-3-acetamide] | 98.2 | – |
| COc1ccccc1-c1c(CC(=O)Nc2c(C(C)C)cccc2C(C)C)c(=O)oc2ccc(Cl)cc12 [Example 92, N-[2,6-Bis(1-methylethyl)phenyl]-6-chloro-4-(2-methoxyphenyl)-2-oxo-2H-1-benzopyran-3-acetamide] | 98.2 | – |
| CCOc1cccc(OCC)c1NC(=O)Cc1c(-c2ccccc2OC)c2cc(Cl)ccc2oc1=O [Example 93, 6-Chloro-N-(2,6-diethoxyphenyl)-4-(2-methoxyphenyl)-2-oxo-2H-1-benzopyran-3-acetamide] | 99 | – |
| CC(C)c1cccc(C(C)C)c1NC(=O)Cc1c(-c2ccccc2C(F)(F)F)c2cc(Cl)ccc2oc1=O [Example 94, N-[2,6-Bis(1-methylethyl)phenyl]-6-chloro-2-oxo-4-(2-trifluoromethylphenyl)-2H-1-benzopyran-3-acetamide] | 98.6 | – |
| CCOc1cccc(OCC)c1NC(=O)Cc1c(-c2ccccc2C(F)(F)F)c2cc(Cl)ccc2oc1=O [Example 95, 6-Chloro-N-(2,6-diethoxyphenyl)-2-oxo-4-(2-trifluoromethylphenyl)-2H-1-benzopyran-3-acetamide] | 99.1 | – |
| CCOc1cc(F)cc(OCC)c1NC(=O)Cc1c(-c2ccccc2C(F)(F)F)c2cc(Cl)ccc2oc1=O [Example 96, 6-Chloro-N-(2,6-diethoxy-4-fluorophenyl)-2-oxo-4-(2-trifluoromethylphenyl)-2H-1-benzopyran-3-acetamide] | 99.3 | – |
| CC(C)c1cccc(C(C)C)c1NC(=O)CC1=C(c2ccccc2)c2cc(Cl)ccc2N(C)C1 [Example 99, N-[2,6-Bis(1-methylethyl)phenyl]-6-chloro-1,2-dihydro-1-methyl-4-phenyl-3-quinolineacetamide] | 97 | – |

Source: patent publication US5482967A, “Condensed heterocyclic compounds, their production and use” (Takeda Chemical Industries, Ltd., priority 1992, dated 1996)
